According to patent US20260144796A1, “Compounds and Methods for Improving Health” (Acurx Pharmaceuticals, Inc., priority 2022, published 2026):
Converted amounts (≈) assume the structure as drawn. Read-outs that look alike come from different tables or passages of the source.

Key:
Clostridium butyricum = test: microbe, parasite or virus in culture; format: cell-based
Clostridium tertium = test: MIC determination, stool Firmicute isolates; format: cell-based
Coprococcus sp = test: MIC determination, stool Firmicute isolates; format: cell-based; settings: N=1
Enterococcus durans = test: MIC determination, stool Firmicute isolates; format: cell-based
[1] = system: Erysipelatoclostridium ramosum; test: MIC determination, stool Firmicute isolates; format: cell-based; settings: Thomasclavelia ramosa
[2] = system: Paeniclostridium sordellii; test: MIC determination, stool Firmicute isolates; format: cell-based; settings: Paraclostridium sordellii
[3] = system: certain Firmicutes (Lachnospiraceae and Lactobacilluseae); test: MIC, isolated gut microbiota species: certain Firmicutes; format: cell-based; settings: inactive
Experimental: Strains plated onto blood agar (Hardy Diagnostics) with a 24-hour incubation at 37° C. in an anaerobic environment (Coy vinyl anaerobic chamber). After incubation, 3-5 well-isolated colonies were suspended into 5 mL of BHI broth (Criterion Media). The cultures were incubated in an anaerobic chamber for 24 hours to achieve a 0.5 McFarland Standard. […] Plates were allowed to dry in a sterile location. After drying, the plates were covered with foil to prevent any photo-damage to the hemin and placed in the anaerobic chamber for 1 hour to reduce the media. The broth culture was then spotted onto the plates and covered with foil. Plates were allowed to dry completely before inverting them for incubation for 48 hours. Plates were analyzed and MIC recorded.

gut microbiome = test: Germ-free humanized mouse study, 16S rRNA gut microbiome analysis; format: in vivo; settings: humanized germ-free mice; for proportional change of Bacteroidetes (in words): phylum level
From the text: Germ-free (GF) mice (six per group) were randomly assigned to IBZ, VAN, FDX, MTZ, or control groups.
An oral gavage of healthy human-derived fecal slurry was given to GF mice. The humanized mice were housed in a sterile biological safety cabinet (BSC) for one week to allow the donor gut microbiome to establish. Humanized mice were then moved to sterile, micro-isolator cages and pellet chow diet was exchanged for a powder chow diet. The humanized mice were then allowed one week to acclimate to the powder chow diet. In addition, a stool sample was obtained prior to the change in diet (baseline 1). At day 14, once the mice acclimated to the powder chow diet, a second baseline stool sample was obtained (baseline 2) and antibiotic treatment was started. The appropriate antibiotics were added to the powder chow diet for 10 days. At day 16, two days after beginning antibiotic treatment, another stool sample was collected (ABX-1). During the 10-day antibiotic treatment, powder chow dishes were refilled each day with fresh chow containing the randomly assigned antibiotic. Stool samples were again collected at day 24 (ABX-2).
To assess antibiotic microbiome effect, 16S rRNA metagenomics was used on stool samples that were collected at day 0 (baseline 1 and baseline 2) and after 2 and […] of treatment with antibiotics. Bulk DNA was extracted from stool samples using the DNeasy® PowerSoil® Kit. The V4 region of the bacterial 16S rRNA gene was sequenced using the Illumina MiSeq and CLC Genomics Workbench. Raw sequencing reads were processed and curated using the mothur (v.1.48.0) software package and the mothur MiSeq SOP was followed as outlined in Schloss, P. D., et al., Introducing mothur: open-source, platform-independent, community supported software for describing and comparing microbial communities. Appl Environ Microbiol, 2009. 75(23): p. 7537-41 (see also, Kozich, J. J., et al., Development of a dual-index sequencing strategy and curation pipeline for analyzing amplicon sequence data on the MiSeq Illumina sequencing platform. Appl Environ Microbiol, 2013. 79(17): p. 5112-20.). All data visualization and statistical analysis were performed using R studio (R Core Team (2023). R: A Language and Environment for Statistical Computing, Vienna, Austria.).

[4] = system: C. difficile CD 630 motility; test: Phenotypic motility assay; settings: sub-inhibitory concentrations in semi-solid BHI agar
[5] = system: C. difficile clinical isolates; settings: Clostridioides difficile, 24 h, agar dilution
[6] = antibiotic in powder chow 10 days
[7] = antibiotic in powder chow 10 days, compared to Baseline 2 (D14)

## O=c1[nH]c(NCc2ccc(Cl)c(Cl)c2)nc2ncn(CCN3CCOCC3)c12 [Ibezapolstat, 2-((3,4-dichlorobenzyl)amino)-7-(2-morpholinoethyl)-1,7-dihydro-6H-purin-6-one]
Clostridium butyricum
  MIC50: 12.5 µg/mL (≈ 29.5 µM)
Clostridium butyricum; read-out: MIC Max, Clostridium butyricum, N=5
  MIC: 100 µg/mL (≈ 236 µM)
Clostridium butyricum; read-out: MIC Min, Clostridium butyricum, N=5
  MIC: 1.5 µg/mL (≈ 3.54 µM)
Clostridium butyricum; strain C. butyricum 1007
  MIC: > 100 µg/mL
Clostridium butyricum; strain C. butyricum 1008
  MIC: 1.5 µg/mL (≈ 3.54 µM)
Clostridium tertium
  MIC50: 12.5 µg/mL (≈ 29.5 µM)
Clostridium tertium; N=2, read-out: MIC Min
  MIC: 3.12 µg/mL (≈ 7.38 µM)
Clostridium tertium; read-out: MIC Max
  MIC: 12.5 µg/mL (≈ 29.5 µM)
Coprococcus sp
  MIC50: 25 µg/mL (≈ 59.1 µM)
Enterococcus durans; N=1
  MIC50: 100 µg/mL (≈ 236 µM)
Enterococcus durans; N=1, read-out: MIC Max
  MIC: 100 µg/mL (≈ 236 µM)
Enterococcus durans; N=1, read-out: MIC Min
  MIC: 100 µg/mL (≈ 236 µM)
[1]; N=5
  MIC50: 6.25 µg/mL (≈ 14.8 µM)
[1]; N=5, read-out: MIC Max
  MIC: 100 µg/mL (≈ 236 µM)
[1]; N=5, read-out: MIC Min
  MIC: 3.12 µg/mL (≈ 7.38 µM)
[2]; read-out: MIC Max
  MIC: 12.5 µg/mL (≈ 29.5 µM)
[2]; Paeniclostridium sordellii, N=4
  MIC50: 1.5 µg/mL (≈ 3.54 µM)
[2]; Paeniclostridium sordellii, N=4, read-out: MIC Min
  MIC: 0.75 µg/mL (≈ 1.77 µM)
[3]
  MIC: > 64 µg/mL
Gut microbiome
  proportional change of Bacteroidetes (in words): proportional increases
Gut microbiome; listed as IBZ
  proportional change of Bacteroidetes (in words): significant proportional increase
Gut microbiome; [6]
  Average Change in Metric ± SD, Bray-Curtis Dissim. to Baseline 1: 0.81 ± 0.02
  Average Change in Metric ± SD, Bray-Curtis Dissim. to Baseline 2: 0.68 ± 0.03
Gut microbiome; [7]
  Avg. Change in Relative Abundance ± SD, Actinobacteria: 0.02% ± 0.08%
  Avg. Change in Relative Abundance ± SD, Bacteroidetes: 34% ± 2.96%
  Avg. Change in Relative Abundance ± SD, Proteobacteria: 9.7% ± 3.12%
[4]
  motility of CD 630: attenuated motility
[4]; listed as IBZ
  motility of CD 630: less motile
[5]; C. difficile clinical isolate MT 4802
  MIC: 4 µg/mL (≈ 9.45 µM)
[5]; C. difficile clinical isolate MT 5071
  MIC: 8 µg/mL (≈ 18.9 µM)
[5]; C. difficile clinical isolate MT 5342
  MIC: 4 µg/mL (≈ 9.45 µM)
[5]; C. difficile clinical isolate MT 5364
  MIC: 4 µg/mL (≈ 9.45 µM)
[5]; C. difficile clinical isolate MT 5382
  MIC: 8 µg/mL (≈ 18.9 µM)
[5]; C. difficile clinical isolate MT 5426
  MIC: 8 µg/mL (≈ 18.9 µM)
[5]; C. difficile clinical isolate MT 5493
  MIC: 4 µg/mL (≈ 9.45 µM)
[5]; C. difficile clinical isolate MT 5515
  MIC: 8 µg/mL (≈ 18.9 µM)
[5]; C. difficile clinical isolate MT 5529
  MIC: 4 µg/mL (≈ 9.45 µM)
[5]; C. difficile clinical isolate MT 5536
  MIC: 8 µg/mL (≈ 18.9 µM)
[5]; C. difficile clinical isolate SH 1132
  MIC: 8 µg/mL (≈ 18.9 µM)
